{"source": "patent US11447485B2", "about": "“Class of bifunctional compounds with quanternary ammonium salt structure” (Beijing Showby Pharmaceutical Co., Ltd., priority 2016, dated 2022)", "key": {"[1]": {"test_system": "tracheal smooth muscle of guinea pig", "assay": "Relaxation of CCh-induced constriction of isolated guinea pig tracheal smooth muscle (Experimental Example 1)", "conditions": "for EC50: Cavia porcellus, read-out: EC50 (μM) ± SD", "procedure": "The upper end was connected with a muscle tension transducer, and the specimen was given a resting tension of 1.0 g. Muscle tension changes were recorded, nutrient solution was changed every 20 min, and the experiment was started after 60 min of equilibrium.\nAdministration Method: After the trachea flake were stabilized, 3×10^−6 mol/L CCh was added to the bath. […] Diastolic condition of the trachea flake was observed. If no response occurred (below the threshold concentration), the next dosage was continued to be added in the order. If any response occurred, the next dosage was added until its diastolic platform was reached. The above operation was repeated until the shrink curve reached the minimum. Finally, 10^−6 mol/L isoproterenol was added to establish maximum relaxation, and the curve was recorded.\nStatistical Methods: Statistics was performed using the Sigma Stat statistical software package, the data was analyzed by using the variance analysis. Student-Newman-Keuls (SNK) test was used in comparison among multiple sample averages number. The statistical test level was α=0.05 (bilateral)."}, "[2]": {"target": "T1, human recombinant β2 adrenoceptor (Homo sapiens, UniProt P07550)", "T1 construct": "expressed in transfected cells", "T1 sequence (P07550 whole entry)": "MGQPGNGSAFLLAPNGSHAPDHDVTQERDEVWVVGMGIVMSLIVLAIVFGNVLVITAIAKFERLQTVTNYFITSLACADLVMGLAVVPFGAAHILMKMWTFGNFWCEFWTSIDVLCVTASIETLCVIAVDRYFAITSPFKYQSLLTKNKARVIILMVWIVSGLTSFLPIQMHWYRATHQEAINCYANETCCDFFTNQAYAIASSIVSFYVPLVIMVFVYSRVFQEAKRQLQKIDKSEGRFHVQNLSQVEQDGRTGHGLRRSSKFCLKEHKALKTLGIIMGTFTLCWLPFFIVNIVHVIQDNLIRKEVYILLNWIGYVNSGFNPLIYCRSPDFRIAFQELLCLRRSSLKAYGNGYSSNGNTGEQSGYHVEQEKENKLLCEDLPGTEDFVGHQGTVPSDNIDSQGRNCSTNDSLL", "assay": "cell-based", "type": "cell-based", "conditions": "EC50 (β1)/EC50 (β2)"}}, "note": "Where two headings read alike, the source gives them in different places.", "data": [{"smiles": "O=c1ccc2c([C@@H](O)CNCCC[N+]34CCC(CC3)[C@@H](OC[C@@](O)(c3ccccc3)C3CCCC3)C4)ccc(O)c2[nH]1", "note": "[Compound 2, (R)-(−)-3-[(R)-2-hydroxy-2-cyclopentyl-2-phenyl]ethoxy-1-(3-{(R)-[2-hydroxy-2-(8-hydroxy-2-oxo-1,2-dihydroquinolin-5-yl)]ethylamino}propyl)-1-azabicyclo[2,2,2]octylonium bromide]", "values": [{"measurement": "Time for eliminating inhibition effect (min)", "setting": "[1]; CCh 3 × 10^−6 mol/L, in vitro", "result": "more than 300 min"}, {"measurement": "EC50", "setting": "[1]", "result": "0.756 ± 0.26", "unit": "µM"}, {"measurement": "sel (β1/β2)", "setting": "[2]", "result": 7.8}]}, {"smiles": "O=CNc1cc([C@@H](O)CNCCCC[N+]23CCC(CC2)[C@@H](OC[C@@](O)(c2ccccc2)C2CCCC2)C3)ccc1O", "note": "[Compound 4, (R)-(−)-3-[(R)-2-hydroxy-2-cyclopentyl-2-phenyl]ethoxy-1-(4-{(R)-[2-hydroxy-2-(3-formamido-4-hydroxy)phenyl]ethylamino}butyl-1-azabicyclo[2,2,2]octylonium bromide]", "values": [{"measurement": "Onset time (min) ± SD", "setting": "[1]; CCh 3 × 10^−6 mol/L, in vitro", "result": "6.23 ± 0.23", "unit": "min"}, {"measurement": "Time for eliminating inhibition effect (min)", "setting": "[1]; CCh 3 × 10^−6 mol/L, in vitro", "result": "more than 300 min"}, {"measurement": "EC50", "setting": "[1]", "result": "0.0358 ± 0.011", "unit": "µM"}, {"measurement": "sel (β1/β2)", "setting": "[2]", "result": 36.8}]}, {"smiles": "O=CNc1cc([C@@H](O)CNCCCCOCC[N+]23CCC(CC2)[C@@H](OC[C@@](O)(c2ccccc2)C2CCCC2)C3)ccc1O", "note": "[Compound 25, (R)-(−)-3-[(R)-2-hydroxy-2-cyclopentyl-2-phenyl]ethoxy-1-[2-(4-{(R)-[2-hydroxy-2-(3-formamido-4-hydroxy)phenyl]ethylamino}butoxy)ethyl]-1-azabicyclo[2,2,2]octylonium bromide]", "values": [{"measurement": "Onset time (min) ± SD", "setting": "[1]; CCh 3 × 10^−6 mol/L, in vitro", "result": "6.86 ± 0.22", "unit": "min"}, {"measurement": "Time for eliminating inhibition effect (min)", "setting": "[1]; CCh 3 × 10^−6 mol/L, in vitro", "result": "more than 300 min"}, {"measurement": "EC50", "setting": "[1]", "result": "0.822 ± 0.27", "unit": "µM"}, {"measurement": "sel (β1/β2)", "setting": "[2]", "result": 30.8}]}, {"smiles": "O=C1COc2c(cc(O)cc2C(O)CNCCCCOCCCCC[N+]23CCC(CC2)C(OCC(O)(c2ccccc2)C2CCCC2)C3)N1", "note": "[Compound 26, (R)-(−)-3-[(R)-2-hydroxy-2-cyclopentyl-2-phenyl]ethoxy-1-[5-(4-{(R)-[2-hydroxy-2-(6-hydroxy-2H-1,4-benzoxazin-3(4H)-one-8-yl)]ethylamino}butoxy)pentyl]-1-azabicyclo[2,2,2]octylonium bromide]", "values": [{"measurement": "Onset time (min) ± SD", "setting": "[1]; CCh 3 × 10^−6 mol/L, in vitro", "result": "6.56 ± 0.65", "unit": "min"}, {"measurement": "Time for eliminating inhibition effect (min)", "setting": "[1]; CCh 3 × 10^−6 mol/L, in vitro", "result": "more than 300 min"}, {"measurement": "EC50", "setting": "[1]", "result": "0.087 ± 0.021", "unit": "µM"}, {"measurement": "sel (β1/β2)", "setting": "[2]", "result": 18.8}]}, {"smiles": "OCc1cc(C(O)CNCCCCOCCCC[N+]23CCC(CC2)C(OCC(O)(c2ccccc2)C2CCCC2)C3)ccc1O", "note": "[Compound 27, (R)-(−)-3-[(R)-2-hydroxy-2-cyclopentyl-2-phenyl]ethoxy-1-[4-(4-{(R)-[2-(3-hydroxymethyl-4-hydroxy)phenyl-2-hydroxy]ethylamino}butoxy)butyl-1-azabicyclo[2,2,2]octylonium bromide]", "values": [{"measurement": "Onset time (min) ± SD", "setting": "[1]; CCh 3 × 10^−6 mol/L, in vitro", "result": "5.54 ± 0.43", "unit": "min"}, {"measurement": "Time for eliminating inhibition effect (min)", "setting": "[1]; CCh 3 × 10^−6 mol/L, in vitro", "result": "more than 300 min"}, {"measurement": "EC50", "setting": "[1]", "result": "0.152 ± 0.086", "unit": "µM"}, {"measurement": "sel (β1/β2)", "setting": "[2]", "result": 78.9}]}, {"smiles": "OCc1cc(C(O)CNCCOCCOCCOCC[N+]23CCC(CC2)C(OCC(O)(c2ccccc2)C2CCCC2)C3)ccc1O", "note": "[Compound 45, (R)-(−)-3-[(R)-2-hydroxy-2-cyclopentyl-2-phenyl]ethoxy-1-(2-{2-[2-(2-{(R)-[2-(3-hydroxymethyl-4-hydroxy)phenyl-2-hydroxy]ethylamino}ethoxy)ethoxy]ethoxy}ethyl)-1-azabicyclo[2,2,2]octylonium bromide]", "values": [{"measurement": "Onset time (min) ± SD", "setting": "[1]; CCh 3 × 10^−6 mol/L, in vitro", "result": "6.39 ± 0.56", "unit": "min"}, {"measurement": "Time for eliminating inhibition effect (min)", "setting": "[1]; CCh 3 × 10^−6 mol/L, in vitro", "result": "more than 300 min"}, {"measurement": "EC50", "setting": "[1]", "result": "0.0278 ± 0.0091", "unit": "µM"}, {"measurement": "sel (β1/β2)", "setting": "[2]", "result": 120.3}]}, {"smiles": "CC(C)[N+]1(C)[C@@H]2CC[C@H]1C[C@@H](OC(=O)C(CO)c1ccccc1)C2", "note": "(stereo partly drawn) [Ipratropium bromide, ipratropium bromide, reference compound]", "values": [{"measurement": "Onset time (min) ± SD", "setting": "[1]; CCh 3 × 10^−6 mol/L, in vitro", "result": "6.82 ± 0.28", "unit": "min"}, {"measurement": "Time for eliminating inhibition effect", "setting": "[1]; CCh 3 × 10^−6 mol/L, in vitro", "result": 185, "unit": "min"}, {"measurement": "Time for eliminating inhibition effect (min)", "setting": "[1]; CCh 3 × 10^−6 mol/L, in vitro, listed as ipratropium bromide", "result": "short duration of action"}, {"measurement": "EC50", "setting": "[1]; constriction induced by CCh 3 × 10^−6 mol/L, in vitro", "result": "0.0361 ± 0.0046", "unit": "µM"}]}]}
